Measured values from patent US9238796B2, “Cell growth-promoting peptide and use thereof” (TOAGOSEI CO., LTD., priority 2010, dated 2016).
No end group written: not given here.

Columns and labels:
[1] = system: Rat bone marrow-derived stem cells (mesenchymal stem cells); assay: Evaluation of cell growth-promoting activity, WST-8 colorimetric method (Example 5); format: cell-based; details: WST-8 absorbance at 450 nm, peptide approximately 2 μM, bFGF 10 ng/mL; for OD450 at the start of cultivation: day 0; for OD450 after 4 days: day 4
Procedure: (§1) Experimental sections were set up that used the cell growth-promoting peptides obtained in Example 4 (samples 22 to 42) as a cell growth promoter and that used a commercially available bFGF as a cell growth promoter as a comparative example. For the control, a peptide-free section (the bFGF was also not added) was set up.
(§2) The details of the evaluation testing are provided below. Each synthesized sample peptide was dissolved in PBS (phosphate-buffered physiological saline) to prepare a stock solution with a peptide concentration of 1 mM.
(§3) Rat bone marrow-derived stem cells (mesenchymal stem cells) were used as the test cells. Specifically, the test stem cells were cultured by passage on Dulbecco's MEM medium (DMEM medium: Gibco product) containing 10% fetal bovine serum (FBS: Gibco product), 2 mM of L-glutamine, 50 unit/mL of penicillin, and 50 μg/mL of streptomycin. From the second passage to the fourth passage (passages 2 to 4) were used in this evaluation testing.
(§4) Thus, the test stem cells were preliminarily recovered by treatment with a 0.05% trypsin-0.53 mM EDTA solution; a test stem cell solution, prepared with the DMEM medium containing 10 ng/mL of bFGF to provide 1×10^4 cells/mL, was seeded to each well of a 96-well plate to provide a cell count of 1×10^3 per well; and pre-cultivation was carried out overnight. The amount of medium was brought to 100 μL per well for this.
(§5) The medium in each well was then exchanged for fresh medium to which a stock solution of a peptide selected from sample 22 to 42 had been added, so as to give a concentration of the peptide in each well of approximately 2 μM. For comparison, in some wells the medium in the well was exchanged for fresh medium to which a commercially available bFGF (product of PeproTech) had been added to give a concentration of 10 ng/mL (the bFGF experimental section in Table 6).
(§6) After the addition of the sample peptide or bFGF as indicated above, the 96-well plate was placed in a CO2 incubator and cultivation at quiescence was carried out at 37° C. under 5% CO2. Medium exchange was performed every other day. The exchange medium was the same as that used at the start of cultivation (i.e., the same sample peptide or bFGF was also added to the exchange medium as in the sample peptide addition section or bFGF addition section).
During this cultivation test, a “water-soluble tetrazolium salt (WST-8)” was added as a chromogenic reagent to some wells at the start of cultivation (day 0) and at four days after the start of cultivation (day 4). After incubation for 2 hours after the addition, the cell culture fluid to which the chromogenic reagent had been added was recovered. The extent of cell growth was evaluated by a colorimetric method in which, based on reduction of the tetrazolium salt, the absorbance (OD450) at a wavelength of 450 nm was measured.

[2] = system: Rat bone marrow-derived stem cells (mesenchymal stem cells); assay: Evaluation of cell growth-promoting activity, WST-8 colorimetric method (Example 2); format: cell-based; details: WST-8 absorbance at 450 nm, peptide approximately 2 μM, bFGF 10 ng/mL
Procedure: as §1, with “1” for “4”, “1” for “22”, “21)” for “42)”
as §2, §3, §4
as §5, with “1” for “22”, “21” for “42”, “3).” for “6).”
as §6
During this cultivation test, a “water-soluble tetrazolium salt (WST-8)” was added as a chromogenic reagent to some wells at the start of cultivation (day 0), at two days after the start of cultivation (day 2), and at four days after the start of cultivation (day 4). After incubation for 2 hours after the addition, the cell culture fluid to which the chromogenic reagent had been added was recovered. The extent of cell growth was evaluated by a colorimetric method in which, based on reduction of the tetrazolium salt, the absorbance (OD450) at a wavelength of 450 nm was measured.

MLPGLALLLLAAWTGKKRTLRKNDRKKR (MLPGLALLLLAAWTGKKRTLRKNDRKKR-NH2) [compound 35]
OD450 at the start of cultivation [1]: 0.051
OD450 after 4 days [1]: 0.299

MLPGLALLLLAGKKRTLRKNDRKKR (MLPGLALLLLAGKKRTLRKNDRKKR-NH2) [compound 38]
OD450 at the start of cultivation [1]: 0.051
OD450 after 4 days [1]: 0.491

MLPGLALLLLGKKRTLRKNDRKKR (MLPGLALLLLGKKRTLRKNDRKKR-NH2) [sample 39]
OD450 at the start of cultivation [1]: 0.051
OD450 after 4 days [1]: 0.538

PGLALLLLAAWTARAGKKRTLRKNDRKKR (PGLALLLLAAWTARAGKKRTLRKNDRKKR-NH2) [compound 23]
OD450 at the start of cultivation [1]: 0.051
OD450 after 4 days [1]: 0.391

WTARAGKKRTLRKNDRKKR (WTARAGKKRTLRKNDRKKR-NH2) [compound 33]
OD450 at the start of cultivation [1]: 0.051
OD450 after 4 days [1]: 0.407

basic fibroblast growth factor [bFGF, reference compound]
OD450 at the start of cultivation [1]: 0.051
OD450 after 4 days [1]: 0.499
OD450 at the start of cultivation ([2]; day 0): 0.058
OD450 after 2 days ([2]; day 2): 0.196
OD450 after 4 days ([2]; day 4): 0.484
